Assay results reported in ChEMBL document CHEMBL1201862, “PubChem BioAssay data set” (2004).
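Dose response: 5 concentrations. Exposure: 48 h. Format: 96-well plates. Endpoint: linear interpolation; highest concentration if not reached. GI50 marks 50% less growth.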 Calls of active or inactive are those of the source. No stated cut-off is given here; in the data, active = GI50 up to about 1.1 µM and inactive = higher.

Assays:
Test in all cases: inhibition of tumour cell growth, NCI panel, 48 h
[1] = test system: DMS-114
[2] = test system: KM12
[3] = test system: UACC-62
[4] = test system: DMS-273
[5] = test system: DLD-1
[6] = test system: M19-MEL
[7] = test system: Malme-3M
[8] = test system: SF-295
[9] = test system: SK-OV-3
[10] = test system: CCRF-CEM
[11] = test system: LXFL 529
[12] = test system: A549
[13] = test system: A498
[14] = test system: SNB-78
[15] = test system: SF-539
[16] = test system: SK-MEL-5
[17] = test system: SNB-19
[18] = test system: SR
[19] = test system: T47D
[20] = test system: MDA-MB-231

Row | Structure (SMILES) | GI50 [1] | GI50 [2] | GI50 [3] | GI50 [4] | GI50 [5] | GI50 [6] | GI50 [7] | GI50 [8] | GI50 [9] | GI50 [10] | GI50 [11] | GI50 [12] | GI50 [13] | GI50 [14] | GI50 [15] | GI50 [16] | GI50 [17] | GI50 [18] | GI50 [19] | GI50 [20]
1 | O=C(O)C12CC3CC(C1)C2C=C3P(=O)(O)O (configuration not stated) | > 100 µM (inactive) | > 100 µM (inactive) | > 100 µM (inactive) | > 100 µM (inactive) | > 100 µM (inactive) | > 100 µM (inactive) | > 100 µM (inactive) | > 100 µM (inactive) | > 100 µM (inactive) | > 100 µM (inactive) | > 100 µM (inactive) |  |  |  |  |  |  |  |  | 
2 | CN(C)CCNC(=O)c1cccc2nc(-c3ccccc3)oc12 | 47.1 µM (inactive) | 53.5 µM (inactive) | 31.5 µM (inactive) |  | 31.9 µM (inactive) | 33 µM (inactive) | 23.9 µM (inactive) | 31.3 µM (inactive) | 34.4 µM (inactive) | 45.6 µM (inactive) |  | 42.6 µM (inactive) | 27.7 µM (inactive) | > 72.6 µM (inactive) | 49.9 µM (inactive) | 22.3 µM (inactive) | 19.7 µM (inactive) |  |  | 
3 | CCOC(=O)C1=NN(c2ccccc2)C2=CC(C)=NN(C)C(=S)N21 |  | > 100 µM (inactive) | > 100 µM (inactive) |  |  |  |  | > 100 µM (inactive) | > 100 µM (inactive) | > 100 µM (inactive) |  | > 100 µM (inactive) |  |  | > 100 µM (inactive) | > 100 µM (inactive) | > 100 µM (inactive) | > 100 µM (inactive) | > 100 µM (inactive) | > 100 µM (inactive)
4 | Cc1cc(O)nc(NN2C(Cl)C(=O)C2c2c(O)ccc3ccccc23)n1 (configuration not stated) | 19.8 µM (inactive) | 23 µM (inactive) | 20.3 µM (inactive) | 16.4 µM (inactive) |  | 39.6 µM (inactive) |  |  |  | 6.76 µM (inactive) | 15.2 µM (inactive) | 36.2 µM (inactive) |  | 20.1 µM (inactive) | 21.9 µM (inactive) | 15.2 µM (inactive) | 20.7 µM (inactive) | 12 µM (inactive) |  | 
5 | CCP(=S)(CC)CCl |  |  |  |  |  |  |  | > 100 µM (inactive) | > 100 µM (inactive) | > 100 µM (inactive) |  | > 100 µM (inactive) |  |  |  | > 100 µM (inactive) | > 100 µM (inactive) | > 100 µM (inactive) | > 100 µM (inactive) | > 100 µM (inactive)
6 | CC(=O)OC1CC2(O)C(CCC3(C)C(c4ccc(=O)oc4)CCC32O)C2(C)CCC(O)C=C12 (configuration not stated) | 0.00116 µM (active) |  | 0.024 µM (active) | 0.005 µM (active) | 0.0375 µM (active) | 0.0234 µM (active) |  | 0.00955 µM (active) | 0.0336 µM (active) |  |  |  | 0.0428 µM (active) | 0.00989 µM (active) | 0.00775 µM (active) | 0.00439 µM (active) | 0.0466 µM (active) |  |  | 
